Test results as given in patent US20250288558A1, “THERAPEUTIC FOR SPINAL CORD INJURY TO INDUCE HYPOTHERMIA” (The Trustees of Indiana University, priority 2024, published 2025).
Where a name gives a salt, the structure may show the parent alone.

Tested on: mice with contusive T9 moderate SCI (IH)
Details: Dex 100 μg/kg one hour post-trauma, IH model, ambient 24.5° C.
Protocol: Contusive spinal cord injury: Adult female C57BL/6 mice (8 weeks old, 18-22 g) were purchased from The Jackson Laboratory (Bar Harbor, ME). Depending on different injury model, mice were either randomly divided into three groups: sham, SCI+heating pad, and SCI+Dex for LISA injury model, or were randomly divided into four groups: sham, SCI+heating pad, SCI+Dex, and SCI+Conventional hypothermia for Infinite Horizons (IH) model. […] All animal care, handling, and surgery were performed in accordance with the Guide for the Care and Use of Laboratory Animals (National Research Council) and the Guidelines of the Institutional Animal Care and Use Committee of Indiana University School of Medicine. Spinal cord contusion was made at the thoracic (T9) vertebral level. After avertin anesthesia, animals will be placed on a thermometer-controlled heating pad for the duration of recovery (except Dex and conventional hypothermia treated group). For LISA injury model, C57/6J mice were anesthetized. […] The T9 contusion injury was performed using a LISA impactor, where the injury level was determined using a laser sensor. After injury confirmation, the surgical area is sutured, the animal is hydrated and monitored for post-operative care, including analgesia and bladder expression. […]

In the case of `Cc1cccc([C@H](C)c2cnc[nH]2)c1C` [Dex, dexmedetomidine hydrochloride], the “duration of moderate hypothermia” value is reported as 16 h.
